Measured values published in patent US12503452B2 (Curza Global, LLC, priority 2019, dated 2025).
Where a name gives a salt, the structure may show the parent alone. Read-outs that look alike come from different tables or passages of the source.

Legend:
[1] = biological target: Rabbit Reticulocyte Lysate (eukaryotic protein synthesis); assay: Rabbit reticulocyte lysate luciferase assay (inhibition of eukaryotic protein synthesis); format: biochemical; details: read-out: Rabbit reticulocyte IC50 (μM/% inhib.)
Outline: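 Nuclease-treated rabbit reticulocyte lysate translating luciferase control RNA, with complete amino acids, was incubated at 30° C. for 90 minutes with 2-fold serial compound dilutions. Luminescence was measured after adding luciferase reagent. % inhibition was relative to water controls, with no-RNA wells as background.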

[2] = system: E. coli S30 extract (bacterial protein synthesis); assay: E. coli S30 extract coupled transcription-translation luciferase assay (inhibition of bacterial protein synthesis); format: biochemical; details: read-out: S30 IC50 (μM/% inhib.)
Outline: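 Cell-free coupled transcription-translation in E. coli S30 circular-DNA extract, with pBESTluc plasmid as template and complete amino acid mix. Eight 2-fold compound dilutions were incubated with the extract 1 h at 37 °C, chilled, then luciferase luminescence was read. % inhibition was taken relative to no-inhibitor wells; no-DNA wells gave background.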

S. aureus (Sa) = assay: Broth microdilution minimum inhibitory concentration (MIC); format: cell-based; details: Staphylococcus aureus, read-out: Sa + bicarb MIC
Outline: (§1)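 CLSI broth microdilution with 8 two-fold compound dilutions in CAMHB, or CAMHB plus sodium bicarbonate (6.25 or 25 mM final) or heat-inactivated human serum (0–50%). Inoculum 5×10^4 CFU/well from 0.5 McFarland cultures grown at 35±2° C; tested in triplicate.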

E. faecalis (Ef) = assay: as above; format: cell-based; details: for MIC: Enterococcus faecalis, read-out: Ef + bicarb MIC
Outline: as §1

E. coli (Ec) = assay: as above; format: cell-based; details: Escherichia coli, read-out: E. coli + bicarb MIC
Outline: as §1

A. baumannii (Ab) = assay: as above; format: cell-based; details: Acinetobacter baumannii, read-out: Ab + bicarb MIC
Outline: as §1

P. aeruginosa (Pa) = assay: as above; format: cell-based; details: for MIC: Pseudomonas aeruginosa, read-out: Pa MIC + bicarb
Outline: as §1

[3] = S. aureus, growth medium with sodium bicarbonate
[4] = E. faecalis, growth medium with sodium bicarbonate
[5] = E. coli, growth medium with sodium bicarbonate
[6] = A. baumannii, growth medium with sodium bicarbonate
[7] = P. aeruginosa, growth medium with sodium bicarbonate
[8] = class by IC50 or % inhibition @ 1 μM
[9] = S. aureus, growth medium supplemented with sodium bicarbonate
[10] = E. faecalis, growth medium supplemented with sodium bicarbonate
[11] = E. coli, growth medium supplemented with sodium bicarbonate
[12] = A. baumannii, growth medium supplemented with sodium bicarbonate
[13] = P. aeruginosa, growth medium supplemented with sodium bicarbonate

| SMILES | MIC (S. aureus (Sa); [3]) | MIC (E. faecalis (Ef); [4]) | MIC (E. coli (Ec); [5]) | MIC (A. baumannii (Ab); [6]) | MIC (P. aeruginosa (Pa); [7]) | IC50 [1, 8] | IC50 [2, 8] | MIC (S. aureus (Sa); [9]) | MIC (E. faecalis (Ef); [10]) | MIC (E. coli (Ec); [11]) | MIC (A. baumannii (Ab); [12]) | MIC (P. aeruginosa (Pa); [13]) | other results |
| --- | --- | --- | --- | --- | --- | --- | --- | --- | --- | --- | --- | --- | --- |
| CC(C)(N)C(=O)N1CCN(C(=O)Nc2ccn(-c3ccc(CCN4CC(C5CCNCC5)C4)cc3)c(=O)n2)CC1 [Compound 372] | < 8 µg/mL | > 32 µg/mL | < 8 µg/mL | > 32 µg/mL | > 32 µg/mL |  |  |  |  |  |  |  | IC50 ([1]; % inhibition @ 1 μM): > 1 µM; IC50 ([2]; % inhibition @ 1 μM): > 1 µM |
| CCN(Cc1ccc(-n2ccc(NC(=O)N3CCN(C(=O)C(C)(C)N)CC3)nc2=O)cc1)[C@H]1CC[C@H](N)C1 [Compound 125] |  |  |  |  |  | > 1 µM | < 0.5 µM | < 8 µg/mL | < 8 µg/mL | < 8 µg/mL | > 32 µg/mL | > 32 µg/mL |  |
| CC(C)(N)C(=O)N1CCN(C(=O)Nc2ccn(-c3ccc(CN4CCC(C5CNC5)CC4)cc3)c(=O)n2)CC1 [Compound 370, hydrochloride salt] |  |  |  |  |  |  |  |  |  |  |  |  | IC50 ([1]; % inhibition @ 1 μM): > 1 µM; IC50 ([2]; % inhibition @ 1 μM): < 0.5 µM; MIC (S. aureus (Sa)): < 8 µg/mL; MIC (E. faecalis (Ef)): < 8 µg/mL; MIC (E. coli (Ec)): < 8 µg/mL; MIC (A. baumannii (Ab)): > 32 µg/mL; MIC (P. aeruginosa (Pa)): > 32 µg/mL |
| CC(C)(N)C(=O)N1CCN(C(=O)Nc2ccn(-c3ccc(OCCN4CCCC(CN)C4)cc3)c(=O)n2)CC1 (centres unmarked) [Compound 188] | < 8 µg/mL | < 8 µg/mL | < 8 µg/mL | > 32 µg/mL | > 32 µg/mL | > 1 µM | < 0.5 µM |  |  |  |  |  |  |
| CCN(C(C)Cc1ccc(-n2ccc(NC(=O)N3CCN(C(=O)C(C)(C)N)CC3)nc2=O)cc1)C1CCC(N)CC1 (centres unmarked) [Compound 281] | < 8 µg/mL |  | < 8 µg/mL | > 32 µg/mL |  | > 1 µM | < 0.5 µM |  |  |  |  |  | Ef + bicarb MIC (E. faecalis (Ef); [4]): +++ (An MIC value (μg/mL) that is less than 8 μg/mL); Pa MIC + bicarb (P. aeruginosa (Pa); [7]): ++ (An MIC value (μg/mL) that is 8 μg/mL or greater and less than 32 μg/mL) |
| CC1CN(Cc2ccc(-n3ccc(NC(=O)N4CCN(C(=O)C(C)(C)N)CC4)nc3=O)cc2)CCC1N (centres unmarked) [Compound 251] | < 8 µg/mL | < 8 µg/mL | < 8 µg/mL | > 32 µg/mL | > 32 µg/mL | > 1 µM | < 0.5 µM |  |  |  |  |  |  |
| Cc1cc(-n2ccc(NC(=O)N3CCN(C(=O)C(C)(C)N)CC3)nc2=O)ccc1CN(CC1CC1)C1CCC(N)CC1 (centres unmarked) [Compound 270] | < 8 µg/mL | < 8 µg/mL | < 8 µg/mL | < 8 µg/mL | 8 to 32 µg/mL | > 1 µM | < 0.5 µM |  |  |  |  |  |  |
| CC(C)(N)C(=O)N1CCN(C(=O)Nc2ccn(-c3cc(F)c(CN[C@H]4CC[C@H](N)CC4)c(F)c3)c(=O)n2)CC1 [Compound 353, hydrochloride salt] |  |  |  |  |  |  |  |  |  |  |  |  | IC50 ([1]; % inhibition @ 1 μM): > 1 µM; IC50 ([2]; % inhibition @ 1 μM): < 0.5 µM; MIC (S. aureus (Sa)): 8 to 32 µg/mL; MIC (E. faecalis (Ef)): > 32 µg/mL; MIC (E. coli (Ec)): < 8 µg/mL; MIC (A. baumannii (Ab)): > 32 µg/mL; MIC (P. aeruginosa (Pa)): > 32 µg/mL |
| Cc1cc(-n2ccc(NC(=O)N3CCN(C(=O)[C@@](C)(N)CO)CC3)nc2=O)ccc1CCN1CCCC(N)CC1 (some centres unmarked) [Compound 139] |  |  |  |  |  | > 1 µM | < 0.5 µM | < 8 µg/mL | < 8 µg/mL | < 8 µg/mL | > 32 µg/mL | 8 to 32 µg/mL |  |
| CCN(Cc1ccc(-n2ccc(NC(=O)N3CCN(C(=O)C(C)(C)N)CC3)nc2=O)cc1)[C@H]1CC[C@@H](N)CC1 [Compound 122] |  |  |  |  |  | > 1 µM | < 0.5 µM | < 8 µg/mL | < 8 µg/mL | < 8 µg/mL | > 32 µg/mL | > 32 µg/mL |  |
| CC(C)(N)C(=O)N1CCN(C(=O)Nc2ccn(-c3ccc(CN(CCO)[C@H]4CC[C@H](N)CC4)cc3)c(=O)n2)CC1 [Compound 132] |  |  |  |  |  | > 1 µM | < 0.5 µM | < 8 µg/mL | > 32 µg/mL | < 8 µg/mL | > 32 µg/mL | > 32 µg/mL |  |
| CC(Cc1ccc(-n2ccc(NC(=O)N3CCN(C(=O)C(C)(C)N)CC3)nc2=O)cc1)NC[C@H]1C[C@@H](N)C1 (some centres unmarked) [Compound 159] |  |  |  |  |  | > 1 µM | < 0.5 µM | < 8 µg/mL | 8 to 32 µg/mL | < 8 µg/mL | > 32 µg/mL | > 32 µg/mL |  |
| CC1C[C@@H](N(C)Cc2ccc(-n3ccc(NC(=O)N4CCN(C(=O)C(C)(C)N)CC4)nc3=O)cc2)CC[C@@H]1N (some centres unmarked) [Compound 337] | < 8 µg/mL | 8 to 32 µg/mL | < 8 µg/mL | > 32 µg/mL | > 32 µg/mL | > 1 µM | < 0.5 µM |  |  |  |  |  |  |
| CCN(Cc1ccc(-n2ccc(NC(=O)N3CCN(C(=O)[C@@H](C)NC(=O)[C@@H](C)N)CC3)nc2=O)cc1)C1CCC(N)CC1 (some centres unmarked) [Compound 359] | 8 to 32 µg/mL | > 32 µg/mL | > 32 µg/mL | > 32 µg/mL | > 32 µg/mL |  |  |  |  |  |  |  | IC50 ([1]; % inhibition @ 1 μM): > 1 µM; IC50 ([2]; % inhibition @ 1 μM): > 1 µM |
| CC(C)(N)C(=O)N1CCN(C(=O)Nc2ccn(-c3ccc(C[C@@H](N)C(=O)N4CCCC(N)CC4)cc3)c(=O)n2)CC1 (some centres unmarked) [Compound 143] |  |  |  |  |  | > 1 µM | > 1 µM | > 32 µg/mL | > 32 µg/mL | > 32 µg/mL | > 32 µg/mL | > 32 µg/mL |  |
| CC(C)(N)C(=O)N1CCN(C(=O)Nc2ccn(-c3ccc(CN4CC(O)(CN)C4)cc3)c(=O)n2)CC1 [Compound 137] |  |  |  |  |  | > 1 µM | < 0.5 µM | 8 to 32 µg/mL | > 32 µg/mL | < 8 µg/mL | > 32 µg/mL | > 32 µg/mL |  |
| Cc1cc(-n2ccc(NC(=O)N3CCN(C(=O)C(C)(C)N)CC3)nc2=O)ccc1CNC1CCC(N)CC1 (centres unmarked) [Compound 283] | < 8 µg/mL | < 8 µg/mL | < 8 µg/mL | > 32 µg/mL | > 32 µg/mL | > 1 µM | < 0.5 µM |  |  |  |  |  |  |
| CC(C)(N)C(=O)N1CCN(C(=O)Nc2ccn(-c3ccc(CCN4CCC[C@H](CN)C4)cc3)c(=O)n2)CC1 [Compound 26] |  |  |  |  |  | > 1 µM | < 0.5 µM | < 8 µg/mL | 8 to 32 µg/mL | < 8 µg/mL | > 32 µg/mL | > 32 µg/mL |  |
| CC(C)(N)C(=O)N1CCN(C(=O)Nc2ccn(-c3ccc(CN4CCC(CN)CC4)cc3)c(=O)n2)CC1 [Compound 245] | < 8 µg/mL | < 8 µg/mL | < 8 µg/mL | > 32 µg/mL | > 32 µg/mL | > 1 µM | < 0.5 µM |  |  |  |  |  |  |
| C[C@H]1CN(Cc2ccc(-n3ccc(NC(=O)N4CCN(C(=O)C(C)(C)N)CC4)nc3=O)cc2)CC[C@H]1N [Compound 211] | < 8 µg/mL | 8 to 32 µg/mL | < 8 µg/mL | > 32 µg/mL | > 32 µg/mL | > 1 µM | 0.5 to 1 µM |  |  |  |  |  |  |
